These results are taken from US7820197B2, “Percutaneous preparations” (Astellas Pharma Inc., priority 2002, dated 2010).

SMILES strings stand for the structures. Like-named read-outs stand apart in the source and are kept apart here.

For data set [1] the following is noted: as compared to control; cited from earlier work.
The test system of data set [2] is dihydrotachysterol-induced calcification (calciphylaxis). As to conditions: cited from earlier work.
Data set [3] is described as follows: Percutaneous absorption test of 14C-incadronate aqueous solution. Format: in vivo, rat. As to conditions: in 24 hours after the administration. The text has this: The rat abdominal hair was shaved and a round cell (made of acryl, 20 mm in diameter) was fixed on the skin with a medical adhesive. […] During the test, the rat was fixed dorsally under urethane anesthesia. Bone tissue specimens were burnt in a tissue combustion equipment and the radioactivity was counted by a scintillation counter.

Data set [4] is described as follows: Solubility properties. Format: physicochemical.

Consider `CC(O)(P(=O)(O)O)P(=O)(O)O` [etidronate], for which the “enhancement of penetration effect by decyl methyl sulfoxide” value in data set [1] is reported as “about 6 fold”. Moreover, the skin calcium level is reported as 2.026% in data set [2] (composition of etidronate and penetrating carrier containing decyl methyl sulfoxide); 0.067% in data set [2] (etidronate alone dissolved in the penetrating carrier vehicle).
For `O=P([O-])(O)C(NC1CCCCCC1)P(=O)([O-])O.[Na+].[Na+]` [incadronate, disodium incadronate], the “concentration in the bone tissues” value in data set [3] is given as “very high concentration in the bone tissues”.
Take `O=P(O)(O)C(O)(Cc1cnc2ccccn12)P(=O)(O)O` [minodronic acid, 1-hydroxy-2-(imidazo[1,2-a]pyridin-3-yl)ethylidenebisphosphonic acid]: the “solubility in an alkaline solvent” value in data set [4] (alkaline solvent) is on record as “soluble in an alkaline solvent”. In addition, the “solubility in an organic solvent” value in data set [4] (organic solvent) is “insoluble even in an organic solvent”. Moreover, the solubility in water result in data set [4] (water) is given as “practically insoluble in water”.
